Results published in US12421223B2, “Compounds and compositions for treating conditions associated with NLRP activity” (Novartis AG, priority 2018, dated 2025).

Test system: IL-1β production in PMA-differentiated THP-1 cells
Assay: IL-1β production in PMA-differentiated THP-1 cells stimulated with gramicidin (hTHP-1 assay, 2% fetal bovine serum)
Assay type: cell-based
Conditions: Homo sapiens, hTHP-1 assay containing 2% fetal bovine serum, gramicidin 5 μM, IL-1β by HTRF, read-out: THP-1 IC50 (Average IC50 of compounds in hTHP-1 assay)
Protocol: The following protocol is suitable for testing the activity of the compounds disclosed herein.
Procedure 1: IL-1β Production in PMA-Differentiated THP-1 Cells Stimulated with Gramicidin.
THP-1 cells were purchased from the American Type Culture Collection and sub-cultured according to instructions from the supplier. Cells were cultured in complete RPMI 1640 (containing 10% heat inactivated FBS, penicillin (100 units/ml) and streptomycin (100 μg/ml)), and maintained in log phase prior to experimental setup. Prior to the experiment, compounds were dissolved in dimethyl sulfoxide (DMSO) to generate a 30 mM stock. The compound stock was first pre-diluted in DMSO to 3, 0.34, 0.042 and 0.0083 mM intermediate concentrations and subsequently spotted using Echo550 liquid handler into an empty 384-well assay plate to achieve desired final concentration (e.g. 100, 33, 11, 3.7, 1.2, 0.41, 0.14, 0.046, 0.015, 0.0051, 0.0017 μM). DMSO was backfilled in the plate to achieve a final DMSO assay concentration of 0.37%. The plate was then sealed and stored at room temperature until required.
THP-1 cells were treated with PMA (Phorbol 12-myristate 13-acetate) (20 ng/ml) for 16-18 hours. On the day of the experiment the media was removed and adherent cells were detached with trypsin for 5 minutes. Cells were then harvested, washed with complete RPMI 1640, spun down, and resuspended in RPMI 1640 (containing 2% heat inactivated FBS, penicillin (100 units/ml) and streptomycin (100 μg/ml). The cells were plated in the 384-well assay plate containing the spotted compounds at a density of 50,000 cells/well (final assay volume 50 μl). Cells were incubated with compounds for 1 hour and then stimulated with gramicidin (5 μM) (Enzo) for 2 hours. Plates were then centrifuged at 340 g for 5 min. Cell free supernatant (40 μL) was collected using a 96-channel PlateMaster (Gilson) and the production of IL-1β was evaluated by HTRF (cisbio). The plates were incubated for 18 h at 4° C. and read using the preset HTRF program (donor emission at 620 nm, acceptor emission at 668 nm) of the SpectraMax i3x spectrophotometer (Molecular Devices, software SoftMax 6). A vehicle only control and a dose titration of CRID3 (100-0.0017 μM) were run concurrently with each experiment.
Procedure 2: IL-1β Production in PMA-Differentiated THP-1 Cells Stimulated with Gramicidin.
THP-1 cells were purchased from the American Type Culture Collection and sub-cultured according to instructions from the supplier. Prior to experiments, cells were cultured in complete RPMI 1640 (containing 10% heat inactivated FBS, penicillin (100 units/ml) and streptomycin (100 μg/ml)), and maintained in log phase prior to experimental setup. Prior to the experiment THP-1 were treated with PMA (Phorbol 12-myristate 13-acetate) (20 ng/ml) for 16-18 hours. Compounds were dissolved in dimethyl sulfoxide (DMSO) to generate a 30 mM stock. On the day of the experiment the media was removed and adherent cells were detached with trypsin for 5 minutes. Cells were then harvested, washed with complete RPMI 1640, spun down, resuspended in RPMI 1640 (containing 2% heat inactivated FBS, penicillin (100 units/ml) and streptomycin (100 μg/ml). The cells were plated in a 384-well plate at a density of 50,000 cells/well (final assay volume 50 μl). Compounds were first dissolved in assay medium to obtain a 5× top concentration of 500 μM. 10 step dilutions (1:3) were then undertaken in assay medium containing 1.67% DMSO. 5× compound solutions were added to the culture medium to achieve desired final concentration (e.g. 100, 33, 11, 3.7, 1.2, 0.41, 0.14, 0.046, 0.015, 0.0051, 0.0017 μM). Final DMSO concentration was at 0.37%. Cells were incubated with compounds for 1 hour and then stimulated with gramicidin (5 μM) (Enzo) for 2 hours. Plates were then centrifuged at 340 g for 5 min. Cell free supernatant (40 μL) was collected using a 96-channel PlateMaster (Gilson) and the production of IL-1β was evaluated by HTRF (cisbio). […]

## CC(C)(O)c1ncc([C@@H](NC(=O)OCc2ccccc2)c2ccn(-c3c4c(cc5c3CCC5)CCC4)n2)s1 (single isomer, unassigned) [Compound 116]
  IC50: 5 to 30 µM

## CC(C)(O)c1ncc(C(CNC(=O)OCc2ccccc2)c2cnn(-c3c4c(cc5c3CCC5)CCC4)c2)s1 (stereo not drawn) [Compound 101, Benzyl (2-(1-(1,2,3,5,6,7-hexahydro-s-indacen-4-yl)-1H-pyrazol-4-yl)-2-(2-(2-hydroxypropan-2-yl)thiazol-5-yl)ethyl) carbamate]
  IC50: 1 to 5 µM

## CC(C)(O)c1ncc(C(NC(=O)OCc2ccccc2)c2ccn(-c3c4c(cc5c3CCC5)CCC4)n2)s1 (stereo not drawn) [Compound 102, Benzyl (1-(1,2,3,5,6,7-hexahydros-indacen-4-yl)-1H-pyrazol-3-yl)(2-(2-hydroxypropan-2-yl)thiazol-5-yl)methylcarbamate]
  IC50: 5 to 30 µM

## CC(C)(O)c1ncc(C(=O)c2ccnn2-c2c3c(cc4c2CCC4)CCC3)s1 [Compound 103]
  IC50: 5 to 30 µM

## CC(C)(O)c1cnc(S(=O)(=O)c2cnn(-c3c4c(cc5c3CCC5)CCC4)c2)s1 [Compound 104, 2-(2-((1-(1,2,3,5,6,7-hexahydro-s-indacen-4-yl)-1H-pyrazol-4-yl)sulfonyl)thiazol-5-yl)propan-2-ol]
  IC50: 5 to 30 µM

## CC(C)(O)c1ncc(C(CNC(=O)c2ccccc2)c2cnn(-c3c4c(cc5c3CCC5)CCC4)c2)s1 (stereo not drawn) [Compound 114]
  IC50: 5 to 30 µM

## CC(C)(O)c1ncc(S(=O)(=O)c2cnn(-c3c4c(cc5c3CCC5)CCC4)c2)s1 [Compound 115, 2-(5-((1-(1,2,3,5,6,7-hexahydro-s-indacen-4-yl)-1H-pyrazol-4-yl)sulfonyl)thiazol-2-yl)propan-2-ol]
  IC50: 5 to 30 µM

## CC(C)(O)c1ncc(C(=O)c2ccn(-c3c4c(cc5c3CCC5)CCC4)n2)s1 [Compound 118]
  IC50: 5 to 30 µM

## O=C(NCc1cnn(-c2c3c(cc4c2CCC4)CCC3)c1)OCc1ccccc1 [Compound 200, Benzyl ((1-(1,2,3,5,6,7-hexahydro-s-indacen-4-yl)-1H-pyrazol-4-yl)methyl)carbamate]
  IC50: 5 to 30 µM
